Assay results published in patent publication US11524966B1 (Valo Early Discovery, Inc., priority 2017, dated 2022).

What follows are molecules tested against T1, USP28 (His-tagged USP28-FL-mammalian) (Homo sapiens, UniProt Q96RU2) (assay: Ubiquitin-Rhodamine 110 Assay for USP28 Activity, Example A-1(a)). Conditions: Ub-Rh110 assay, Example A-1(a); read-out: USP28 A-1(a) IC50 range.
T1 construct: Expression of USP28 (1-1077)-TEV-6*His (pTT5 vector); made in house; host or cells: Expi293f cells (pTT5 vector)
T1 sequence (Q96RU2 1-1077): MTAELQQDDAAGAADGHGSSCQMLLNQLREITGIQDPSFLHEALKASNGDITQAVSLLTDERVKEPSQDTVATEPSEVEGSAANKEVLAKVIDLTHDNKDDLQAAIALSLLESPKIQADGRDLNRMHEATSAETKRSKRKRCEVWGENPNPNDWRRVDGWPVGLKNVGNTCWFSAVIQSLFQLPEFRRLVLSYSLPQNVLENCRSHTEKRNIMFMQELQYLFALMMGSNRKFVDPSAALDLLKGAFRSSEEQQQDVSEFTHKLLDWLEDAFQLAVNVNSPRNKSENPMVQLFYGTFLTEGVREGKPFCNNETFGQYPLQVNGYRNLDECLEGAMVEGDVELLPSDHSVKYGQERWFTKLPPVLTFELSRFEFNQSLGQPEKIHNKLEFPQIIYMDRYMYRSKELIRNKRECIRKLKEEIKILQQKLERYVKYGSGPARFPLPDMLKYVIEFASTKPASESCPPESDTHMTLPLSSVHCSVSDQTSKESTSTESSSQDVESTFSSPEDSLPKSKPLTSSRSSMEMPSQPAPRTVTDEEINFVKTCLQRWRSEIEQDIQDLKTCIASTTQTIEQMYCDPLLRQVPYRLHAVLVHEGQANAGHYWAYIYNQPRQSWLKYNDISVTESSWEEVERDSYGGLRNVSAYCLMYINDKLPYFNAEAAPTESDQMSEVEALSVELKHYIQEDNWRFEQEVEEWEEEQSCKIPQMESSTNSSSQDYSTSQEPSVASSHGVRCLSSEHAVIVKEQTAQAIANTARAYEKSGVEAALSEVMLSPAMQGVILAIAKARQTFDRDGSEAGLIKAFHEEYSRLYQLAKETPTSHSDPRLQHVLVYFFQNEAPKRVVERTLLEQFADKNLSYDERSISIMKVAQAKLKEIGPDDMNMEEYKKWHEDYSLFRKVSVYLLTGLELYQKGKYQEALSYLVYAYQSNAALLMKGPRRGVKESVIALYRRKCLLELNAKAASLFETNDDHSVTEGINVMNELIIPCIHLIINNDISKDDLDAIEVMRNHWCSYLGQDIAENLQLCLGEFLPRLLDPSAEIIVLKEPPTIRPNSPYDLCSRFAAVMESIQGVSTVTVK
Type: biochemical
How it was run: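 Full-length His-tagged USP28 (1-1077, Expi293F-expressed; […]) was preincubated 30 min with compound (25 μM–1.3 nM, 10-point 3-fold) in 20 mM Tris-HCl pH 8.0, 3 mM BME, 0.03% BGG, 0.01% Triton X-100. Ub-Rh110 (25 nM) was then added for 45 min at room temperature, stopped with citric acid, and read by fluorescence (485/535 nm).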

SMILES | IC50 [nM]
Cc1ccc2c(N)c(C(=O)N[C@H]3COc4cc(N5CCN[C@@H](C)C5)ccc4C3)sc2n1 [Example 2-8, 3-amino-6-methyl-N-((R)-7-((S)-3-methylpiperazin-1-yl)chroman-3-yl)thieno[2,3-b]pyridine-2-carboxamide] | 1 to 50
CO[C@@H]1CN(c2ccc3c(c2)OC[C@H](NC(=O)c2sc4nc(C)ccc4c2N)C3)C[C@H]1N (single isomer, unassigned) [Example 3-2] | 1 to 50
Cc1ccc2c(N)c(C(=O)N[C@@H]3COc4cc(N5CCNCC5)c(F)cc4C3)sc2n1 [Example 1-36, (S)-3-amino-N-(6-fluoro-7-(piperazin-1-yl)chroman-3-yl)-6-methylthieno[2,3-b]pyridine-2-carboxamide] | > 2000
CCn1ccc2cc(C(=O)N[C@H]3COc4cc(N5CC6CCC(C5)N6)ccc4C3)cnc21 (single isomer, unassigned) [Example 1-28] | 1 to 50
Cc1ccc2c(N)c(C(=O)N[C@@H]3COc4c(ccc(N5CCNCC5)c4F)C3)sc2n1 [Example 1-34, (S)-3-amino-N-(8-fluoro-7-(piperazin-1-yl)chroman-3-yl)-6-methylthieno[2,3-b]pyridine-2-carboxamide] | 200 to 2000
Cc1cc(C)c2c(N)c(C(=O)N[C@H]3COc4cc(N5CC6CNCC(C5)C6(F)F)ccc4C3)sc2n1 [Example 2-19, 3-amino-N-((3R)-7-(9,9-difluoro-3,7-diazabicyclo[3.3.1]nonan-3-yl)chroman-3-yl)-4,6-dimethylthieno[2,3-b]pyridine-2-carboxamide] | 1 to 50
Cc1cc(C)c2c(N)c(C(=O)N[C@H]3COc4cc(N5CC6CNCC(C5)O6)ccc4C3)sc2n1 [Example 2-20, N-((3R)-7-(9-oxa-3,7-diazabicyclo[3.3.1]nonan-3-yl)chroman-3-yl)-3-amino-4,6-dimethylthieno[2,3-b]pyridine-2-carboxamide] | 1 to 50
Cc1cc(C)c2c(N)c(C(=O)N[C@H]3COc4cc(N5CCNCC5)ccc4C3)sc2n1 [Example 2-17, (R)-3-amino-4,6-dimethyl-N-(7-(piperazin-1-yl)chroman-3-yl)thieno[2,3-b]pyridine-2-carboxamide] | 1 to 50
Cc1ccc2c(N)c(C(=O)N[C@H]3COc4cc(N5CC6CC(C5)N6)cc(F)c4C3)sc2n1 (single isomer, unassigned) [Example 1-42] | 200 to 2000
Cc1cnc2c(N)c(C(=O)N[C@H]3CCc4cc(N5CCNCC5)c(C)cc4C3)sc2n1 (single isomer, unassigned) [Example 2-34] | 50 to 200
Nc1c(C(=O)N[C@@H]2COc3cc(N4CC5CCC(C4)N5)ccc3C2)sc2ncc(F)cc12 (single isomer, unassigned) [Example 1-18] | > 2000
Cc1ccc2c(N)c(C(=O)N[C@H]3COc4cc(N5CCNCC5)c(OC(F)(F)F)cc4C3)sc2n1 (single isomer, unassigned) [Example 1-31] | 200 to 2000
Cc1ccc2c(N)c(C(=O)N[C@H]3COc4c(ccc(N5CCNCC5)c4F)C3)sc2n1 [Example 1-33, (R)-3-amino-N-(8-fluoro-7-(piperazin-1-yl)chroman-3-yl)-6-methylthieno[2,3-b]pyridine-2-carboxamide] | 1 to 50
Cc1ccc2c(N)c(C(=O)N[C@H]3COc4cc(N5CCN[C@H](C)[C@H]5C)ccc4C3)sc2n1 (single isomer, unassigned) [Example 1-11] | 1 to 50
O=C(N[C@H]1COc2cc(N3CC4CCC(C3)N4)ccc2C1)c1ccc(NCc2ccccc2)nc1 [Example 2-25, N-((3R)-7-(3,8-diazabicyclo[3.2.1]octan-3-yl)chroman-3-yl)-6-(benzylamino)nicotinamide] | 50 to 200
Cc1ccc2c(N)c(C(=O)N[C@@H]3COc4cc(N5CCN[C@@H](C)[C@@H]5C)ccc4C3)sc2n1 (single isomer, unassigned) [Example 1-14] | 50 to 200

SMILES | IC50 [nM]
Cc1ccc2c(N)c(C(=O)N[C@@H]3COc4cc(N5CC6CC(C5)N6)ccc4C3)sc2n1 [Example 2-3, N-((3S)-7-(3,6-diazabicyclo[3.1.1]heptan-3-yl)chroman-3-yl)-3-amino-6-methylthieno[2,3-b]pyridine-2-carboxamide] | 200 to 2000
Cc1ccc2c(N)c(C(=O)N[C@@H]3COc4cc(N5CC6CCCC(C5)N6)ccc4C3)sc2n1 (single isomer, unassigned) [Example 1-6] | 50 to 200
Cc1ccc2c(N)c(C(=O)N[C@@H]3COc4cc(N5CC6CCC(C5)N6)ccc4C3)sc2n1 (single isomer, unassigned) [Example 1-4] | 200 to 2000
CCn1ccc2cc(C(=O)N[C@H]3COc4cc(N5CC6CCCC(C5)N6)ccc4C3)nnc21 [Example 2-29, N-((3R)-7-(3,9-diazabicyclo[3.3.1]nonan-3-yl)chroman-3-yl)-7-ethyl-7H-pyrrolo[2,3-c]pyridazine-3-carboxamide] | 50 to 200
Cc1cc(C)c2c(N)c(C(=O)N[C@H]3COc4c(C#N)c(N5CCNCC5)cc(F)c4C3)sc2n1 [Example 2-31, (R)-3-amino-N-(8-cyano-5-fluoro-7-(piperazin-1-yl)chroman-3-yl)-4,6-dimethylthieno[2,3-b]pyridine-2-carboxamide] | 1 to 50
Cc1cnc2c(N)c(C(=O)N[C@@H]3COc4cc(N5CCNCC5)ccc4C3)sc2n1 (single isomer, unassigned) [Example 1-22] | 200 to 2000
Cc1ccc2c(N)c(C(=O)N[C@H]3COc4cc(N5CC6CCCC(C5)N6)ccc4C3)sc2n1 (single isomer, unassigned) [Example 1-5] | 1 to 50
Cc1nc2sc(C(=O)N[C@H]3COc4cc(N5CC6CCC(C5)N6)ccc4C3)c(N)c2s1 [Example 1-23, N-((3R)-7-(3,8-diazabicyclo[3.2.1]octan-3-yl)chroman-3-yl)-6-amino-2-methylthieno[2,3-d]thiazole-5-carboxamide] | 1 to 50
Cc1ccc2c(N)c(C(=O)N[C@H]3COc4cc(N5CCN[C@H](C)C5)ccc4C3)sc2n1 [Example 2-9, 3-amino-6-methyl-N-((R)-7-((R)-3-methylpiperazin-1-yl)chroman-3-yl)thieno[2,3-b]pyridine-2-carboxamide] | 1 to 50
Cc1ccc2c(N)c(C(=O)N[C@@H]3COc4cc(N5CC6CCC(C5)N6)cc(F)c4C3)sc2n1 (single isomer, unassigned) [Example 1-30] | 200 to 2000
CCn1ccc2cc(C(=O)N[C@@H]3COc4cc(N5CC6CCC(C5)N6)ccc4C3)cnc21 (single isomer, unassigned) [Example 1-27] | 200 to 2000
Cc1ccc2c(N)c(C(=O)N[C@H]3COc4cc(N5CC6CNCC(C5)C6(F)F)ccc4C3)sc2n1 [Example 2-1, 3-Amino-N-((3R)-7-(9,9-difluoro-3,7-diazabicyclo[3.3.1]nonan-3-yl)chroman-3-yl)-6-methylthieno[2,3-b]pyridine-2-carboxamide] | 1 to 50
Cc1ccc2c(N)c(C(=O)N[C@H]3COc4cc(N5CC6CC(C5)N6)ccc4C3)sc2n1 [Example 2-2, N-((3R)-7-(3,6-diazabicyclo[3.1.1]heptan-3-yl)chroman-3-yl)-3-amino-6-methylthieno[2,3-b]pyridine-2-carboxamide] | 1 to 50
Cc1nc2sc(C(=O)N[C@@H]3COc4cc(N5CCNCC5)ccc4C3)c(N)c2s1 [Example 1-26, (S)-6-amino-2-methyl-N-(7-(piperazin-1-yl)chroman-3-yl)thieno[2,3-d]thiazole-5-carboxamide] | 200 to 2000
Cc1nc2sc(C(=O)N[C@H]3COc4cc(N5CCNCC5)ccc4C3)c(N)c2s1 [Example 1-25, (R)-6-amino-2-methyl-N-(7-(piperazin-1-yl)chroman-3-yl)thieno[2,3-d]thiazole-5-carboxamide] | 1 to 50
Cc1nc2sc(C(=O)N[C@H]3COc4cc(N5CCNCC5)ccc4C3)c(N)c2cc1F (single isomer, unassigned) [Example 1-15] | 1 to 50

Same assay, conditions: Ubiquitin-Rhodamine 110 assay, Example A-1(a); read-out: USP28 A-1(a) IC50 range

SMILES | IC50 [nM]
Cc1cnc2c(N)c(C(=O)N[C@H]3CCc4nc(N5CCNCC5)ccc4C3)sc2n1 [Example 23-6, 7-amino-3-methyl-N-[(6S)-2-(piperazin-1-yl)-5,6,7,8-tetrahydroquinolin-6-yl]thieno[2,3-b]pyrazine-6-carboxamide] | 50 to 200
